{"source": "patent US8968997B2", "about": "“Benzoxazole-based fluorescent metal ion indicators” (Life Technologies Corporation, priority 2008, dated 2015)", "key": {"[1]": {"test": "Spectrofluorimetry studies: excitation and emission spectra and ratiometric response to metal ion binding", "type": "physicochemical", "conditions": "for λabs (UV), (nm): indicator 1-2 μM in 30 mM MOPS, 100 mM KCl buffer; for λemiss (nm) / λexcit (nm): position of maxima for two ratiometric peaks, 30 mM MOPS, 100 mM KCl, 0 to 200 nM free calcium ion", "protocol": "(§1) The excitation and emission spectra of solutions of various ion indicators (concentration 1-2 μM) were recorded in 30 mM MOPS and 100 mM KCl buffers containing 0 to 200 nM free calcium ion. The binding constant values were calculated based on 8-10 data points taken in buffers covering the concentration range appropriate for the Kd value. Spectral curves for derivatives of Compound 7 (with different R substitutents) were recorded using a standard spectrofluorimeter.\nFIGS. 1-3 show excitation and emission spectra for several of the tested compounds. […]"}, "[2]": {"test": "Spectrofluorimetry studies: calcium binding constant (Kd) of ion indicators", "conditions": "30 mM MOPS, 100 mM KCl buffers; calculated from 8-10 data points; read-out: Kd(Ca^2+)", "protocol": "as §1"}, "[3]": {"test_system": "Jurkat T-cell leukemia cultured cells", "test": "Flow cytometry studies: intracellular calcium response of dye-loaded cells after stimulant", "type": "cell-based", "conditions": "Jurkat cells loaded with 4 μM cell-permeant compound, 355 nm excitation", "protocol": "Jurkat T-cell leukemia cultured cells were washed once with Hanks Buffered Salt Solution (HBSS) containing calcium and resuspended in HBSS at a concentration of 2×10^6/ml. A one (1) mL cell suspension was added to a 12×75 mm test tube. A cell-permeant compound (7e or 7f) was added to the cell suspension at a final concentration of 4 μM. The cell/dye mixture was mixed and placed at 37° C. protected from light for 30 minutes. The sample then was washed once with HBSS pre-warmed to 37° C. and the cell pellet was resuspended in one mL warmed HBSS. The sample rested for 15 minutes at 37° C. protected from light. […] Analysis of the data was performed using a dual parameter plot of time versus fluorescence ratio of the emissions as measured by 495/20:424/44 ratio. […] A plot of time versus fluorescence ratio for cells that have been loaded with the tested compound was collected upon addition of ionomycin or CD3 stimulant after baseline measurement. […] For Compound 7e, the ratio of the mean fluorescence as measured yielded an increase of 3.4× with ionomycin stimulation (A), an expected response which was maintained over time. The ratio of the mean fluorescence as measured gave an increase of 2.8× with CD3 stimulation (B), an expected response which decreased slightly over time. […]"}}, "note": "Values joined by “and” are separate entries in the source; they are usually repeats but may differ in a detail not shown here. Equal entries are not always repeated.", "data": [{"smiles": "Cc1ccc(N(CC(=O)O)CC(=O)O)c(OCCOc2cc3nc(-c4cccc(=O)[nH]4)oc3cc2N(CC(=O)O)CC(=O)O)c1", "note": "[Compound 7j]", "values": [{"measurement": "λabs (UV), (nm)", "setting": "[1]", "value": 366, "unit": "nm"}, {"measurement": "λemiss (nm)", "setting": "[1]", "value": 567, "unit": "nm"}, {"measurement": "λexcit (nm)", "setting": "[1]", "value": "349-392 nm"}, {"measurement": "Kd", "setting": "[2]", "value": 146, "unit": "nM"}]}, {"smiles": "Cc1ccc(N(CC(=O)O)CC(=O)O)c(OCCOc2cc3nc(-c4nc5ccccc5s4)oc3cc2N(CC(=O)O)CC(=O)O)c1", "note": "[Compound 7i]", "values": [{"measurement": "λabs (UV), (nm)", "setting": "[1]", "value": 364, "unit": "nm"}, {"measurement": "λemiss (nm)", "setting": "[1]", "value": 569, "unit": "nm"}, {"measurement": "λexcit (nm)", "setting": "[1]", "value": "361-422 nm"}, {"measurement": "Kd", "setting": "[2]", "value": 309, "unit": "nM"}]}, {"smiles": "Cc1ccc(N(CC(=O)O)CC(=O)O)c(OCCOc2cc3nc(/C=C/c4cc5c6c(c4)CCCN6CCC5)oc3cc2N(CC(=O)O)CC(=O)O)c1", "note": "[Compound 7q]", "values": [{"measurement": "λabs (UV), (nm)", "setting": "[1]", "value": 413, "unit": "nm"}, {"measurement": "λemiss (nm)", "setting": "[1]", "value": 548, "unit": "nm"}, {"measurement": "λexcit (nm)", "setting": "[1]", "value": 413, "unit": "nm"}, {"measurement": "Kd", "setting": "[2]", "value": 80, "unit": "nM"}]}, {"smiles": "Cc1ccc(N(CC(=O)O)CC(=O)O)c(OCCOc2cc3nc(-c4cc5cc6c7c(c5oc4=O)CCCN7CCC6)oc3cc2N(CC(=O)O)CC(=O)O)c1", "note": "[Compound 7t]", "values": [{"measurement": "λabs (UV), (nm)", "setting": "[1]", "value": 472, "unit": "nm"}, {"measurement": "λemiss (nm)", "setting": "[1]", "value": 520, "unit": "nm"}, {"measurement": "λexcit (nm)", "setting": "[1]", "value": 472, "unit": "nm"}, {"measurement": "Kd", "setting": "[2]", "value": 156, "unit": "nM"}]}, {"smiles": "Cc1ccc(N(CC(=O)O)CC(=O)O)c(OCCOc2cc3nc(-c4cc5c6c(c4)CCCN6CCC5)oc3cc2N(CC(=O)O)CC(=O)O)c1", "note": "[Compound 7h]", "values": [{"measurement": "λabs (UV), (nm)", "setting": "[1]", "value": 375, "unit": "nm"}, {"measurement": "λemiss (nm)", "setting": "[1]", "value": "435-510 nm"}, {"measurement": "λexcit (nm)", "setting": "[1]", "value": 375, "unit": "nm"}, {"measurement": "Kd", "setting": "[2]", "value": 145, "unit": "nM"}]}, {"smiles": "Cc1ccc(N(CC(=O)O)CC(=O)O)c(OCCOc2cc3nc(-c4ccc5cc(N(C)C)ccc5c4)oc3cc2N(CC(=O)O)CC(=O)O)c1", "note": "[Compound 7r]", "values": [{"measurement": "λabs (UV), (nm)", "setting": "[1]", "value": 373, "unit": "nm"}, {"measurement": "λemiss (nm)", "setting": "[1]", "value": 496, "unit": "nm"}, {"measurement": "λexcit (nm)", "setting": "[1]", "value": 373, "unit": "nm"}, {"measurement": "Kd", "setting": "[2]", "value": 129, "unit": "nM"}]}, {"smiles": "Cc1ccc(N(CC(=O)O)CC(=O)O)c(OCCOc2cc3nc(-c4ccc5nonc5c4)oc3cc2N(CC(=O)O)CC(=O)O)c1", "note": "[Compound 7l]", "values": [{"measurement": "λabs (UV), (nm)", "setting": "[1]", "value": "330 nm and 440 (non- nm"}, {"measurement": "λemiss (nm)", "setting": "[1]", "value": 490, "unit": "nm"}, {"measurement": "λexcit (nm)", "setting": "[1]", "value": "324-364 nm"}, {"measurement": "Kd", "setting": "[2]", "value": 157, "unit": "nM"}]}, {"smiles": "COc1cc(N(C)C)ccc1-c1nc2cc(OCCOc3cc(C)ccc3N(CC(=O)O)CC(=O)O)c(N(CC(=O)O)CC(=O)O)cc2o1", "note": "[Compound 7f]", "values": [{"measurement": "λabs (UV), (nm)", "setting": "[1]", "value": 363, "unit": "nm"}, {"measurement": "λemiss (nm)", "setting": "[1]", "value": "417-475 nm"}, {"measurement": "λexcit (nm)", "setting": "[1]", "value": 363, "unit": "nm"}, {"measurement": "increase of ratio of mean fluorescence (495/20:424/44 emission ratio) after stimulant vs baseline", "setting": "[3]; 1 μM ionomycin stimulation", "value": 3.2, "unit": "×"}, {"measurement": "increase of ratio of mean fluorescence (495/20:424/44 emission ratio) after stimulant vs baseline", "setting": "[3]; CD3 stimulation", "value": 2.8, "unit": "×"}, {"measurement": "Kd", "setting": "[2]", "value": 103, "unit": "nM"}]}, {"smiles": "Cc1ccc(N(CC(=O)O)CC(=O)O)c(OCCOc2cc3nc(-c4ccc(N(C)C)cc4O)oc3cc2N(CC(=O)O)CC(=O)O)c1", "note": "[Compound 7g]", "values": [{"measurement": "λabs (UV), (nm)", "setting": "[1]", "value": 363, "unit": "nm"}, {"measurement": "λemiss (nm)", "setting": "[1]", "value": "417-496 nm"}, {"measurement": "λexcit (nm)", "setting": "[1]", "value": 363, "unit": "nm"}, {"measurement": "Kd", "setting": "[2]", "value": 85, "unit": "nM"}]}, {"smiles": "Cc1ccc(N(CC(=O)O)CC(=O)O)c(OCCOc2cc3nc(/C=C/c4ccc(N(C)C)c5ccccc45)oc3cc2N(CC(=O)O)CC(=O)O)c1", "note": "[Compound 7p]", "values": [{"measurement": "λabs (UV), (nm)", "setting": "[1]", "value": 392, "unit": "nm"}, {"measurement": "λemiss (nm)", "setting": "[1]", "value": 586, "unit": "nm"}, {"measurement": "λexcit (nm)", "setting": "[1]", "value": 392, "unit": "nm"}, {"measurement": "Kd", "setting": "[2]", "value": 290, "unit": "nM"}]}, {"smiles": "Cc1ccc(N(CC(=O)O)CC(=O)O)c(OCCOc2cc3nc(-c4cc[n+]([O-])cc4)oc3cc2N(CC(=O)O)CC(=O)O)c1", "note": "[Compound 7k]", "values": [{"measurement": "λabs (UV), (nm)", "setting": "[1]", "value": 357, "unit": "nm"}, {"measurement": "λemiss (nm)", "setting": "[1]", "value": 612, "unit": "nm"}, {"measurement": "λexcit (nm)", "setting": "[1]", "value": "356-425 nm"}, {"measurement": "Kd", "setting": "[2]", "value": 304, "unit": "nM"}]}]}
